These results are taken from ChEMBL document CHEMBL3576800, “Discovery of a Potent and Orally Bioavailable Dual Antagonist of CC Chemokine Receptors 2 and 5” (ACS Med Chem Lett, 2015).

Data set [1] relates to Liver microsome. Particulars: rat, microsomes.
Description: Drug metabolism in rat liver microsomes
Data set [2] can be described thus: Clearance in Sprague-Dawley rat at 2.5 mg/kg, iv after 0.25 to 24 hrs by LC/MS/MS method. It is filed as ADME, organism-based. Particulars: in vivo.
Data set [3] in a line: Oral bioavailability in Sprague-Dawley rat at 25 mg/kg after 0.25 to 24 hrs by LC/MS/MS method. To be noted: in vivo. It is filed as ADME, organism-based.
Data set [4] in a line: AUC in Sprague-Dawley rat at 25 mg/kg, po after 0.25 to 24 hrs by LC/MS/MS method. The class given is ADME, organism-based. Also noted: time upper 24 hr, dose 25 mg/kg, time lower 0.25 hr, route oral. Particulars: in vivo.
Data set [5] is described as follows: Clearance in cynomolgus monkey at 1 mg/kg, iv after 0.25 to 24 hrs by LC/MS/MS method. The class given is ADME, organism-based, Macaca fascicularis. To be noted: in vivo.
Data set [6] can be described thus: Oral bioavailability in cynomolgus monkey at 1.4 mg/kg after 0.25 to 24 hrs by LC/MS/MS method. It is filed as ADME, organism-based, Macaca fascicularis. Particulars: in vivo.
Data set [7] can be described thus: AUC in cynomolgus monkey at 1.4 mg/kg, po after 0.25 to 24 hrs by LC/MS/MS method. The class given is ADME, organism-based, Macaca fascicularis. Set-up: time 0.25-24 hr, dose 1.4 mg/kg, route oral. To be noted: in vivo.
The species named for data set [8] is Mus musculus. Particulars: in vivo, po, 10 mg/kg, 4 h.

On to `COC[C@@H]1C[C@H](N(C)C(C)C)CC[C@@H]1NC(=O)CNC(=O)c1cccc(C(F)(F)F)c1`, for which, in data set [1], the Drug metabolism amounted to 0.01 nmol/min/mg.

`CCCC[C@@H]1C[C@H](N(C)C(C)C)CC[C@@H]1NC(=O)CNC(=O)c1cccc(C(F)(F)F)c1`: the Drug metabolism in data set [1] is listed as 0.17 nmol/min/mg.

As for `CCC[C@@H]1C[C@H](N(C)C(C)C)CC[C@@H]1N1CC[C@H](Nc2ncnc3ccc(C(F)(F)F)cc23)C1=O`, the figures for the clearance in data set [2] and in data set [5] were 40 mL/min/kg and 25 mL/min/kg, respectively. Moreover, the values for the bioavailability in data set [3] and in data set [6] were 68% and 46%, respectively. In addition, the AUC in data set [4] was 9.29 µM·h; in data set [7], 0.862 µM·h. The AUC/dose in data set [8] was determined as 22 µM·h.

`CC(C)N(C)[C@@H]1CC[C@H](NC(=O)CNC(=O)c2cccc(C(F)(F)F)c2)[C@H](COc2ccccc2)C1` yielded a Drug metabolism in data set [1] of 0.29 nmol/min/mg.

For the compound `CC(C)N(C)[C@@H]1CC[C@H](NC(=O)CNC(=O)c2cccc(C(F)(F)F)c2)[C@H](CS(=O)(=O)c2ccccc2)C1`, the AUC/dose in data set [8] turned out to be 1.1 µM·h. The same compound showed a Drug metabolism in data set [1] of 0.16 nmol/min/mg.

As a reminder, the clearance is the volume of plasma or blood freed of the substance per unit of time. By bioavailability is commonly meant the share of a dose that reaches the circulation, judged against a reference dose that is usually intravenous. Broadly, the AUC is concentration integrated over time.
